# Laboratory results taken from US11123323B2, “Monoterpenes for treating respiratory disorders, in particular bronchopulmonary disorders” (Maria Clemetine Martin Klosterfrau Vertriebsqesellschaft MBH, priority 2008, dated 2021).
# What was measured:
# [1] = test system: IL-1beta production in LPS-stimulated human monocytes; test: LPS-stimulated production of IL-1beta in human monocytes in vitro (ELISA); type: cell-based; conditions: for IL-1beta: LPS, 20 hours
# Source text: 1,8-Cineol intensifies in particular the action of subtherapeutic concentrations of beclometasone which are relevant for the peripheral respiratory tract.
# [2] = test system: FCS-stimulated production of superoxides (O2^−) in normal human monocytes; test: FCS-stimulated superoxide production of normal human monocytes in vitro (INT-formazan); type: cell-based; conditions: for O2^−: FCS 10%
# Procedure: As already described, monocytes were isolated from 50 ml of venous blood which was repeatedly donated voluntarily for the experiments by healthy non-smoking subjects (n=4). […] To this end, the active compounds were incubated together with freshly isolated monocytes (10^5/ml) and the FCS stimulus (10%, from Sigma) for 20 hours in a cell culture medium (RPMI-1640, from Sigma). […] The determination of the cytosolic superoxide production is based on the reduction of the dye p-iodonitrotetrazolium violet (INTV), which reacts specifically with superoxide ions, to iodonitrotetrazolium formazan (formazan). INTV is taken up by the cells into the cytosol. Intracellularly, the nitrogen cycle of the INTV is reduced by free superoxide radicals, giving rise to a water-soluble intermediate and the water-insoluble formazan, which have their absorption maxima at 505 and 490 nm, respectively. […] At the end of an experiment, the cell lysate is (after treatment with hydrochloric acid) measured at 492 nm in a photometer. Here, the absorption of light is proportional to the amount of intracellularly accumulated INT-formazan which can then be determined using a formazan calibration curve. The INT-formazan accumulation for its part is determined as a measure for the intracellular production of superoxide.
# [3] = becl. 10^−9 mol/l, Table 5 series
# [4] = becl. 10^−9 mol/l, Table 6 series
# [5] = becl. 10^−10 mol/l, Table 5 series
# [6] = becl. 10^−10 mol/l, Table 6 series
# [7] = becl. 10^−11 mol/l, Table 5 series
# [8] = becl. 10^−11 mol/l, Table 6 series
compound,measurement,setting,value
C[C@H]1C[C@H]2[C@@H]3CCC4=CC(=O)C=C[C@]4(C)[C@@]3(Cl)[C@@H](O)C[C@]2(C)[C@@]1(O)C(=O)CO [beclometasone],Effect vs. cineol 10^−6 mol/l Inhibition (%),[1]; beclometasone 10^−9 mol/l,25.2 ± 20%
same,Effect vs. control Inhibition (%),[1]; beclometasone 10^−9 mol/l,49.4 ± 20%
same,IL-1beta,[1]; beclometasone 10^−9 mol/l,2654 ± 545 Pg/5 × 10^4 cells
same,Effect vs. control Inhibition (%),[1]; beclometasone 10^−10 mol/l,22.9 ± 23%
same,"production of IL-1beta, change",[1]; beclometasone 10^−10 mol/l,−22.9%
same,Effect vs. cineol 10^−6 mol/l Inhibition (%),"[1]; beclometasone 10^−10 mol/l, (+) in brackets = more IL-1beta than with cineol",(+14 ± 23) %
same,IL-1beta,[1]; beclometasone 10^−10 mol/l,4047 ± 940 Pg/5 × 10^4 cells
same,Effect vs. control Inhibition (%),[1]; beclometasone 10^−11 mol/l,19.7 ± 20%
same,"production of IL-1beta, change",[1]; beclometasone 10^−11 mol/l,−19.7%
same,Effect vs. cineol 10^−6 mol/l Inhibition (%),"[1]; beclometasone 10^−11 mol/l, (+) in brackets = more IL-1beta than with cineol",(+18.9 ± 20) %
same,IL-1beta,[1]; beclometasone 10^−11 mol/l,4217 ± 864 Pg/5 × 10^4 cells
same,Effect vs. control Inhibition (%),[1]; beclometasone 10^−12 mol/l,0.1 ± 19%
same,"production of IL-1beta, change",[1]; beclometasone 10^−12 mol/l,0%
same,Effect vs. cineol 10^−6 mol/l Inhibition (%),"[1]; beclometasone 10^−12 mol/l, (+) in brackets = more IL-1beta than with cineol",(+47.8 ± 19) %
same,IL-1beta,[1]; beclometasone 10^−12 mol/l,5246 ± 1028 Pg/5 × 10^4 cells
same,inhibition of LPS-stimulated production of IL-1beta,"[1]; beclometasone on its own, concentration not given",49.9±20%
same,O2^−,[2]; [3],16052 ± 969 nmol/mL
same,O2^−,[2]; [4],17338 ± 1305 nmol/mL
same,Percent of control,[2]; [3],−10 ± 6%
same,Percent of control,[2]; [4],−8 ± 7%
same,O2^−,[2]; [5],16445 ± 903 nmol/mL
same,O2^−,[2]; [6],17577 ± 1191 nmol/mL
same,Percent of control,[2]; [5],−8 ± 5%
same,Percent of control,[2]; [6],−6 ± 7%
same,O2^−,[2]; [7],16562 ± 1081 nmol/mL
same,O2^−,[2]; [8],17639 ± 1372 nmol/mL
same,Percent of control,[2]; [7],−7 ± 6%
same,Percent of control,[2]; [8],−6 ± 8%
same,O2^−,"[2]; beclometasone 10^−6 mol/l, 20 hours, Table 3 series",18240 ± 463 nmol/mL
same,O2^−,"[2]; beclometasone 10^−7 mol/l, 20 hours, Table 3 series",16782 ± 678 nmol/mL
same,Percent of control,"[2]; beclometasone 10^−7 mol/l, vs FCS control, Table 3 series",+5.8 ± 4%
same,O2^−,"[2]; beclometasone 10^−8 mol/l, 20 hours, Table 3 series",16035 ± 639 nmol/mL
same,Percent of control,"[2]; beclometasone 10^−8 mol/l, vs FCS control, Table 3 series",−1.1 ± 4%
same,O2^−,"[2]; beclometasone 10^−9 mol/l, 20 hours, Table 3 series",14192 ± 733 nmol/mL
same,Percent of control,"[2]; beclometasone 10^−9 mol/l, vs FCS control, Table 3 series",−10.5±5%
same,O2^−,"[2]; beclometasone 10^−10 mol/l, 20 hours, Table 3 series",14702 ± 682 nmol/mL
same,Percent of control,"[2]; beclometasone 10^−10 mol/l, vs FCS control, Table 3 series",−7.3 ± 5%
same,O2^−,"[2]; beclometasone 10^−11 mol/l, 20 hours, Table 3 series",15042 + 568 nmol/ml
same,Percent of control,"[2]; beclometasone 10^−11 mol/l, vs FCS control, Table 3 series",−5.1 ± 3%
same,effect on the O2^− production,"[2]; beclometasone 10^−11 to 10^−9 mol/l on its own, Table 6 series",no detectable effect on the O2^− production
same,O2^−,"[2]; beclometasone 10^−12 mol/l, 20 hours, Table 3 series",15050 ± 455 nmol/mL
same,Percent of control,"[2]; beclometasone 10^−12 mol/l, vs FCS control, Table 3 series",−5.1 ± 3%
same,monocyte O2^− production,"[2]; high concentrations (10^−8 mol/l and above) of beclometasone, FIG. 4",stimulated the monocyte O2^− production
